# Reference: article PMC10257182, “Discovery of senolytics using machine learning” (Nature Communications, 2023)
# Like-named read-outs stand apart in the source and are kept apart here.
# Columns and labels:
# Assay type in all cases: cell-based, human
# [1] = test system: non-senescent control A549 cells; test: Nuclei count senolytic assay, TIS model, non-senescent control cells; conditions: Homo sapiens, A549, Control cells, mean, read-out: Mean % Cell Survival; for viability at 10 µM: log (dose) [M] -5; for viability at 4.68 µM: log (dose) [M] -5.33; for viability at 2.19 µM: log (dose) [M] -5.66; for viability at 1 µM: log (dose) [M] -6; for viability at 0.468 µM: log (dose) [M] -6.33; for viability at 0.219 µM: log (dose) [M] -6.66; for viability at 0.1 µM: log (dose) [M] -7; for viability at 0.0468 µM: log (dose) [M] -7.33; for viability at 0.0219 µM: log (dose) [M] -7.66; for viability at 0.01 µM: log (dose) [M] -8
# Procedure, shortened: (§1)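 A549 cells made senescent with 100 μM etoposide for 48 h then 3 days in normal media; non-senescent A549 as control. Cells were exposed for 72 h to a 10-point […] range (10 μM–10 nM) in triplicate, then fixed, Hoechst-stained and imaged for nuclei count.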
# [2] = test system: senescent A549 cells (etoposide-induced); test: Nuclei count senolytic assay, therapy-induced senescence (TIS) model, senescent cells; conditions: Homo sapiens, A549, Senescent cells, mean, read-out: Mean % Cell Survival; for viability at 10 µM: log (dose) [M] -5; for viability at 4.68 µM: log (dose) [M] -5.33; for viability at 2.19 µM: log (dose) [M] -5.66; for viability at 1 µM: log (dose) [M] -6; for viability at 0.468 µM: log (dose) [M] -6.33; for viability at 0.219 µM: log (dose) [M] -6.66; for viability at 0.1 µM: log (dose) [M] -7; for viability at 0.0468 µM: log (dose) [M] -7.33; for viability at 0.0219 µM: log (dose) [M] -7.66; for viability at 0.01 µM: log (dose) [M] -8
# Procedure, shortened: as §1
# [3] = test system: senescent IMR90 ER:RAS cells (4-OHT-induced); test: Nuclei count (Hoechst, high content imaging) senolytic assay, oncogene-induced senescence (OIS) model, senescent cells; conditions: Homo sapiens; for viability at 1 µM: log (dose) [M] -6, 72 h; for viability at 0.4677 µM: log (dose) [M] -6.33, 72 h
# Procedure, shortened: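 Compared non-senescent and senescent IMR90 ER:RAS cultures (senescence induced with 4-OHT at 100 nM final); cells seeded 24 h before dosing, then exposed 72 h to compounds, 10-point […] range 10 μM–10 nM, triplicate. Fixed, Hoechst-stained, nuclei counted by high-content imaging; drop versus untreated reflects cell death.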
# [4] = IMR-90, 72 h, Senescent, log (dose) [M] -5, 72 h, mean n=3 (Fig 3C), read-out: Mean % Cell Survival
# [5] = IMR-90, 72 h, Senescent, log (dose) [M] -5.33, 72 h, mean n=3 (Fig 3C), read-out: Mean % Cell Survival
# [6] = IMR-90, 72 h, Senescent, log (dose) [M] -5.66, 72 h, mean n=3 (Fig 3C), read-out: Mean % Cell Survival
# [7] = IMR-90, 72 h, Senescent, mean n=3 (Fig 3C), read-out: Mean % Cell Survival
# [8] = IMR-90, 72 h, Senescent, log (dose) [M] -6.66, 72 h, mean n=3 (Fig 3C), read-out: Mean % Cell Survival
# [9] = IMR-90, 72 h, Senescent, log (dose) [M] -7, 72 h, mean n=3 (Fig 3C), read-out: Mean % Cell Survival
# [10] = IMR-90, 72 h, Senescent, log (dose) [M] -7.33, 72 h, mean n=3 (Fig 3C), read-out: Mean % Cell Survival
# [11] = IMR-90, 72 h, Senescent, log (dose) [M] -7.66, 72 h, mean n=3 (Fig 3C), read-out: Mean % Cell Survival
# [12] = IMR-90, 72 h, Senescent, log (dose) [M] -8, 72 h, mean n=3 (Fig 3C), read-out: Mean % Cell Survival
# [13] = IMR-90, Senescent cells, log (dose) [M] -5.33, individual replicates, SUP FIG 4C, read-out: % Cell Survival
# [14] = IMR-90, Senescent cells, log (dose) [M] -7.66, individual replicates, SUP FIG 4C, read-out: % Cell Survival
# [15] = IMR-90, Senescent, log (dose) [M] -8, read-out: % Cell Survival
smiles,measurement,setting,value
"CO[C@H]1C[C@@H]2CC[C@@H](C)[C@@](O)(O2)C(=O)C(=O)N2CCCC[C@H]2C(=O)O[C@H]([C@H](C)C[C@@H]2CC[C@@H](O)[C@H](OC)C2)CC(=O)[C@H](C)/C=C(\C)[C@@H](O)[C@@H](OC)C(=O)[C@H](C)C[C@H](C)/C=C/C=C/C=C/1C [Rapamycin, rapamycin, reference compound]",viability at 10 µM,[1],74.6%
same,viability at 4.68 µM,[1],60.2%
same,viability at 2.19 µM,[1],54%
same,viability at 1 µM,[1],104%
same,viability at 0.468 µM,[1],117%
same,viability at 0.219 µM,[1],122%
same,viability at 0.1 µM,[1],128%
same,viability at 0.0468 µM,[1],102%
same,viability at 0.0219 µM,[1],117%
same,viability at 0.01 µM,[1],116%
same,viability at 10 µM,[2],212%
same,viability at 4.68 µM,[2],215%
same,viability at 2.19 µM,[2],208%
same,viability at 1 µM,[2],228%
same,viability at 0.468 µM,[2],246%
same,viability at 0.219 µM,[2],228%
same,viability at 0.1 µM,[2],250%
same,viability at 0.0468 µM,[2],249%
same,viability at 0.0219 µM,[2],69.5%
same,viability at 0.01 µM,[2],93.7%
same,viability at 10 µM,[3]; [4],98.4%
same,viability at 4.677 µM,[3]; [5],103%
same,viability at 2.188 µM,[3]; [6],114%
same,viability at 1 µM,[3]; [7],90.6%
same,viability at 0.4677 µM,[3]; [7],101%
same,viability at 0.2188 µM,[3]; [8],97.8%
same,viability at 0.1 µM,[3]; [9],92.6%
same,viability at 0.04677 µM,[3]; [10],105%
same,viability at 0.02188 µM,[3]; [11],93.9%
same,viability at 0.01 µM,[3]; [12],92%
same,viability at 10 µM,"[3]; IMR-90, Senescent cells, log (dose) [M] -5, individual replicates, SUP FIG 4C, read-out: % Cell Survival",94.1%
same,viability at 4.677 µM,[3]; [13],113%
same,viability at 0.2188 µM,"[3]; IMR-90, Senescent cells, log (dose) [M] -6.66, individual replicates, SUP FIG 4C, read-out: % Cell Survival",104%
same,viability at 0.1 µM,"[3]; IMR-90, Senescent cells, log (dose) [M] -7, individual replicates, SUP FIG 4C, read-out: % Cell Survival",95.9%
same,viability at 0.04677 µM,"[3]; IMR-90, Senescent cells, log (dose) [M] -7.33, individual replicates, SUP FIG 4C, read-out: % Cell Survival",107%
same,viability at 0.02188 µM,[3]; [14],102%
same,viability at 0.01 µM,"[3]; IMR-90, Senescent cells, log (dose) [M] -8, individual replicates, SUP FIG 4C, read-out: % Cell Survival",88.4%
"CO[C@H]1C[C@@H]2CC[C@@H](C)[C@@](O)(O2)C(=O)C(=O)N2CCCC[C@H]2C(=O)O[C@H]([C@H](C)C[C@@H]2CC[C@@H](OP(C)(C)=O)[C@H](OC)C2)CC(=O)[C@H](C)/C=C(\C)[C@@H](O)[C@@H](OC)C(=O)[C@H](C)C[C@H](C)/C=C/C=C/C=C/1C [Ridaforolimus, ridaforolimus, reference compound]",viability at 10 µM,[1],110%
same,viability at 4.68 µM,[1],121%
same,viability at 2.19 µM,[1],69%
same,viability at 1 µM,[1],65.1%
same,viability at 0.468 µM,[1],96%
same,viability at 0.219 µM,[1],102%
same,viability at 0.1 µM,[1],97.4%
same,viability at 0.0468 µM,[1],108%
same,viability at 0.0219 µM,[1],74.4%
same,viability at 0.01 µM,[1],107%
same,viability at 10 µM,[2],162%
same,viability at 4.68 µM,[2],174%
same,viability at 2.19 µM,[2],157%
same,viability at 1 µM,[2],66.9%
same,viability at 0.468 µM,[2],113%
same,viability at 0.219 µM,[2],102%
same,viability at 0.1 µM,[2],60.6%
same,viability at 0.0468 µM,[2],60.9%
same,viability at 0.0219 µM,[2],84.7%
same,viability at 0.01 µM,[2],87.1%
same,viability at 10 µM,[3]; [4],122%
same,viability at 4.677 µM,[3]; [5],144%
same,viability at 2.188 µM,[3]; [6],164%
same,viability at 1 µM,[3]; [7],156%
same,viability at 0.4677 µM,[3]; [7],160%
same,viability at 0.2188 µM,[3]; [8],156%
same,viability at 0.1 µM,[3]; [9],126%
same,viability at 0.04677 µM,[3]; [10],128%
same,viability at 0.02188 µM,[3]; [11],131%
same,viability at 0.01 µM,[3]; [12],105%
same,viability at 2.188 µM,"[3]; IMR-90, Senescent cells, log (dose) [M] -5.66, individual replicates, SUP FIG 4C, read-out: % Cell Survival",166%
same,viability at 0.02188 µM,[3]; [14],129%
same,viability at 0.02188 µM,"[3]; IMR-90, Senescent, log (dose) [M] -7.66, read-out: % Cell Survival",81.7%
same,viability at 0.01 µM,[3]; [15],78.7%
"O=c1cc(-c2ccc(O)cc2)oc2cc(O)c(O)c(O)c12 [Scutellarein, scutellarein]",viability at 10 µM,[1],111%
same,viability at 4.68 µM,[1],112%
same,viability at 2.19 µM,[1],105%
same,viability at 1 µM,[1],108%
same,viability at 0.468 µM,[1],102%
same,viability at 0.219 µM,[1],109%
same,viability at 0.1 µM,[1],102%
same,viability at 0.0468 µM,[1],99.3%
same,viability at 0.0219 µM,[1],98.3%
same,viability at 0.01 µM,[1],99.7%
same,viability at 10 µM,[2],108%
same,viability at 4.68 µM,[2],104%
same,viability at 2.19 µM,[2],105%
same,viability at 1 µM,[2],135%
same,viability at 0.468 µM,[2],106%
same,viability at 0.219 µM,[2],103%
same,viability at 0.1 µM,[2],81.8%
same,viability at 0.0468 µM,[2],88.6%
same,viability at 0.0219 µM,[2],97.4%
same,viability at 0.01 µM,[2],91.3%
same,viability at 10 µM,[3]; [4],124%
same,viability at 4.677 µM,[3]; [5],124%
same,viability at 2.188 µM,[3]; [6],132%
same,viability at 1 µM,[3]; [7],124%
same,viability at 0.4677 µM,[3]; [7],137%
same,viability at 0.2188 µM,[3]; [8],132%
same,viability at 0.1 µM,[3]; [9],115%
same,viability at 0.04677 µM,[3]; [10],122%
same,viability at 0.02188 µM,[3]; [11],106%
same,viability at 0.01 µM,[3]; [12],100%
same,viability at 4.677 µM,[3]; [13],129%
same,viability at 0.2188 µM,"[3]; IMR-90, Senescent, log (dose) [M] -6.66, read-out: % Cell Survival",97.8%
same,viability at 0.04677 µM,"[3]; IMR-90, Senescent, log (dose) [M] -7.33, read-out: % Cell Survival",91.2%
same,viability at 0.01 µM,[3]; [15],100%
